Source: the NIST ThermoML archive (doi:10.1016/j.fluid.2019.112241)
Where “and” joins values, the source holds several entries; their conditions need not be identical. Equal entries are not always repeated.

Conditions: Liquid, Transpiration method

CCCCCCN(CCCCCC)C(C)=O [N,N-dihexylacetamide]
Conditions | vapor or sublimation pressure [kPa]
319.4 K | 0.0004
322.4 K | 0.00053
325.5 K | 0.00071
328.4 K | 0.00091
329.2 K | 0.00098
331.5 K | 0.00123
332.4 K | 0.0013
332.5 K | 0.00136
335.5 K | 0.0017
338.5 K | 0.00228
342.2 K | 0.00302
346.4 K | 0.0043
349.5 K | 0.0056
350.4 K | 0.00612
353.3 K | 0.00738
353.4 K | 0.00736
356.3 K | 0.00918
359.2 K | 0.01148
360.3 K | 0.01247
362.3 K | 0.01466
364.2 K | 0.01684

CC(=O)N(C)C [N,N-dimethylethanamide]
Conditions | vapor or sublimation pressure
273.3 K | 0.03543 kPa and 0.03607 kPa and 0.035 kPa
274.7 K | 0.03924 kPa
275.9 K | 0.04222 kPa
276.5 K | 0.04528 kPa
276.9 K | 0.04668 kPa
277.3 K | 0.05063 kPa
278.2 K | 0.05175 kPa
278.6 K | 0.05303 kPa
279.7 K | 0.058 kPa
281.3 K | 0.06713 kPa and 0.07108 kPa
281.4 K | 0.06481 kPa
281.9 K | 0.06864 kPa
282.4 K | 0.07295 kPa
283 K | 0.07741 kPa
285.3 K | 0.0977 kPa
285.8 K | 0.09266 kPa
286.4 K | 0.09668 kPa
287.3 K | 0.1021 kPa
288.2 K | 0.1121 kPa
288.3 K | 0.1147 kPa
289.3 K | 0.1307 kPa
290.2 K | 0.1314 kPa
290.8 K | 0.1301 kPa
291.2 K | 0.1351 kPa
291.3 K | 0.1465 kPa
291.8 K | 0.1543 kPa
293.2 K | 0.1571 kPa
293.3 K | 0.1763 kPa
294.2 K | 0.1744 kPa
296.2 K | 0.2041 kPa
296.3 K | 0.2 kPa
297.2 K | 0.2169 kPa
297.3 K | 0.2291 kPa
298.1 K | 0.2275 kPa
298.2 K | 0.2301 kPa
300.2 K | 0.2612 kPa
300.7 K | 0.2666 kPa and 0.2829 kPa
301.3 K | 0.2983 kPa
302.2 K | 0.3174 kPa
302.7 K | 0.3279 kPa
303 K | 0.3058 kPa
303.2 K | 0.3248 kPa
304.7 K | 0.3758 kPa
305.2 K | 0.3538 kPa and 0.3944 kPa
305.6 K | 0.3795 kPa
308 K | 0.4422 kPa
308.1 K | 0.4305 kPa
310.6 K | 0.5041 kPa
313.1 K | 0.6025 kPa
313.2 K | 0.6035 kPa
315.7 K | 0.711 kPa
316.4 K | 0.7274 kPa
318.2 K | 0.8426 kPa
320.8 K | 0.9968 kPa
323.2 K | 1.115 kPa
323.3 K | 1.128 kPa
325.8 K | 1.285 kPa
328.3 K | 1.481 kPa

CCCCN(CCCC)C(C)=O [N,N-dibutylacetamide]
Conditions | vapor or sublimation pressure
291.8 K | 0.0013 kPa
298.8 K | 0.00247 kPa
300.9 K | 0.00292 kPa
301.8 K | 0.00324 kPa
303.9 K | 0.00402 kPa
306.6 K | 0.00505 kPa
306.7 K | 0.00514 kPa
308.8 K | 0.00635 kPa
312.5 K | 0.00844 kPa
315.7 K | 0.0107 kPa
317.5 K | 0.01304 kPa
320.4 K | 0.01631 kPa
320.7 K | 0.01642 kPa
320.8 K | 0.01653 kPa
322.6 K | 0.01907 kPa
323.6 K | 0.02074 kPa
325.6 K | 0.02381 kPa
327.2 K | 0.02708 kPa
327.6 K | 0.0289 kPa
330.6 K | 0.03472 kPa and 0.03551 kPa
333.3 K | 0.04451 kPa
334.8 K | 0.04701 kPa
335.7 K | 0.05254 kPa
337.5 K | 0.05938 kPa
340.7 K | 0.0733 kPa
343.6 K | 0.09061 kPa

CCN(CC)C(C)=O [N,N-diethylacetamide]
Conditions | vapor or sublimation pressure
293.2 K | 0.05427 kPa
295.7 K | 0.06498 kPa
298.1 K | 0.07907 kPa
300.7 K | 0.09611 kPa
303.3 K | 0.1134 kPa
308.2 K | 0.1595 kPa and 0.1564 kPa
310.6 K | 0.1826 kPa
313.1 K | 0.218 kPa
313.2 K | 0.22 kPa
318.2 K | 0.3145 kPa and 0.3097 kPa
323.1 K | 0.4179 kPa
323.3 K | 0.4212 kPa
325.7 K | 0.4988 kPa
328.2 K | 0.5921 kPa and 0.5695 kPa
330.7 K | 0.6838 kPa
333.1 K | 0.8078 kPa
333.2 K | 0.771 kPa
335.7 K | 0.882 kPa
338.3 K | 1.032 kPa
